Experimental data: patent publication US20260007601A1, “IONIZABLE CATIONIC LIPID COMPOUND AND COMPOSITION FOR DELIVERING NUCLEIC ACID AND USE THEREOF” (BEIJING YOUCAREKECHUANG PHARMACEUTICAL TECHNOLOGY CO., LTD., priority 2023, published 2026)

Key:
[1] = Encapsulation rate, drug loading concentration and total RNA concentration detection (RiboGreen); format: physicochemical; conditions: LNP formulation of the named lipid
Source text: Encapsulation rate is a key quality attribute of liposomes. It refers to the percentage of drug content encapsulated in the lipid bilayer to the total amount of drug added, which can reflect the degree of drug encapsulation in liposomes. The Chinese Pharmacopoeia stipulates that the encapsulation rate should usually not be less than 80%.
The drug loading capacity is the ratio of the amount of drug in the liposome to the total amount of drug and carrier in the liposome. The drug loading capacity directly affects the clinical application dose of the drug, so the larger the drug loading capacity, the more it can meet clinical needs. The drug loading concentration is proportional to the drug loading capacity, and the relative proportion of the drug loading concentration can represent the relative proportion of the drug loading capacity. The relative proportion of the total RNA concentration can represent the relative proportion of the amount of mRNA carried by the LNP formulation.
1×TE buffer, 0.1% Triton X-100 buffer, and RiboGreen reagent (1:200) and mRNA standard stock solution were prepared.
An appropriate amount of sample was taken and added to an appropriate amount of 1×TE buffer, which was diluted to a solution containing about 2.8 μg of the test sample per 1 mL. Then the sample was added to a 96-well plate, where 50 μL of the diluted test sample or mRNA standard stock solution was added to each well, and then added with 1×TE buffer and 0.1% Triton X-100 buffer. The samples were incubated at 37° C. for 10 minutes, and 100 μL of RiboGreen reagent (1:200) was added to each well of the 96-well plate. The plate was centrifuged, and read using an ELISA reader, and the data was processed.

[2] = Particle size and polydispersity index (PDI) of nanolipid particles, dynamic light scattering; format: physicochemical; conditions: LNP formulation prepared from the named cationic lipid, 25° C
Experimental: The particle size and polydispersity index (PDI) were determined by dynamic light scattering method using a Malvern laser particle size analyzer. 10 μL of liposome solution was diluted to 1 mL with RNase-free deionized water and added to a sample pool. Each sample was measured three times. The measurement conditions were: 90° scattering angle, 25° C.

293T cells [3] = assay: Cell survival rate assay (CCK-8); format: cell-based; conditions: LNP containing 1.5 μg Fluc-mRNA, 24 hours, CCK-8
Experimental: (§1) Cell recovery and passaging: 293T cells were recovered and cultured in culture dishes to the required cell number.
(§2) Plating: The cells in the culture dish were digested, counted, plated in a 96-well plate at 10,000 cells per well, or in a 12-well plate at 150,000 cells per well, and cultured overnight until the cells adhered to the wall.
(§3) Cell recovery and passage: The method was the same as in Example 3.
(§4) Plating: The method was the same as Example 3.
The LNP formulations containing 1.5 μg Fluc-mRNA (prepared according to Example 4, the LNP formulation carrier components are cationic lipids, neutral lipids, structured lipids and polymer-conjugated lipids at a molar ratio of 49:10:39.5:1.5, wherein the cationic lipids are the cationic lipids listed in Table 1) and the Lipofectamine 3000 formulation were added to the cell culture medium of the 96-well plate, and the culture was continued for 24 hours. Then, 10 μL of CCK-8 solution was added to each well, and the culture plate was incubated in the incubator for 1 hour, and the absorbance at 450 nm was measured by a microplate reader.

293T cells [4] = assay: Fluorescence detection of Fluc-mRNA (cell transfection efficiency of LNP formulations); format: cell-based; conditions: for Relative light unit (RLU): LNP containing 0.3 μg Fluc-mRNA, 24 hours; for Multiples of values that equivalent to YK-201: RLU of YK-201 / RLU of the named lipid; for Multiples of values that equivalent to YK-202: RLU of YK-202 / RLU of the named lipid; for Multiples of values that equivalent to YK-209: RLU of YK-209 / RLU of the named lipid; for Ratio relative to SM-102: RLU of the named lipid / RLU of SM-102, times that of SM-102
Experimental: as §1, §2, §3, §4
The LNP formulation containing 0.3 μg Fluc-mRNA (prepared according to Example 4, the LNP formulation carrier components were cationic lipids, neutral lipids, structured lipids and polymer-conjugated lipids at a molar ratio of 49:10:39.5:1.5, and the cationic lipids were cationic lipids listed in Table 1) was added to the cell culture medium of a 96-well plate, and cultured for 24 hours. After that, the corresponding reagents were added according to the instructions of the Gaussia Luciferase Assay Kit, and the fluorescence expression intensity of each well was detected by the IVIS fluorescence detection system. This experiment verified the transfection efficiency of the LNP formulation in the cell, and the specific detection results are shown in Tables 6-9.

female BALB/C mice = assay: Mouse in vivo imaging of Fluc-mRNA LNP formulations; set-up: average radiation intensity (mRNA expression): unit not given here; conditions: 10 μg Fluc-mRNA LNP intramuscularly
Experimental: The LNP formulation containing 10 μg Fluc-mRNA (prepared according to Example 4) was injected intramuscularly into female BALB/C mice aged 4 to 6 weeks and weighing 17 to 19 g, and the mice were intraperitoneally injected with fluorescent imaging substrates at specific time points (6 h, 24 h, 48 h and 7 d) after administration. The mice moved freely for 5 minutes, and then the average radiation intensity (corresponding to the fluorescence expression intensity) of the protein expressed by the mRNA carried by the LNP in the mice was detected by IVIS Spectrum small animal in vivo imager. The test results are shown in Tables 14 to 17 and FIGS. 12 to 14.

| Structure (SMILES) | Drug loading concentration [1] | Encapsulation rate [1] | Total RNA concentration [1] | PDI [2] | Particle size [2] | Cell survival rate (293T cells [3]) | Relative light unit (RLU) (293T cells [4]) | Multiples of values that equivalent to YK-201 (293T cells [4]) | Multiples of values that equivalent to YK-202 (293T cells [4]) | Multiples of values that equivalent to YK-209 (293T cells [4]) | Ratio relative to SM-102 (293T cells [4]) | average radiation intensity (mRNA expression) (female BALB/C mice; 6 h) | average radiation intensity (mRNA expression) (female BALB/C mice; 24 h) | average radiation intensity (mRNA expression) (female BALB/C mice; 48 h) | average radiation intensity (mRNA expression) (female BALB/C mice; 7 d) |
| --- | --- | --- | --- | --- | --- | --- | --- | --- | --- | --- | --- | --- | --- | --- | --- |
| CCCCCCCCCCOC(=O)CCCN(CCCCCC(=O)OCC(CCCCCCCC)CCCCCCCC)CCOC(=O)SCCCN(C)C [YK-218, 2-octyldecyl-11-(4-(decyloxy)-4-oxobutyl)-2-methyl-7-oxo-8-oxo-6-thio-2,11-diazaheptane-17-carboxylate] | 36.50 µg/mL | 78.2% | 46.66 µg/mL | 17.2% | 222 nm | 72.84% | 607080 RLU | 46.92 | 49.35 | 34.69 | 0.36 | – | – | – | – |
| CCCCCCCCC(CCCCCCCC)OC(=O)CCCCCN(CCCCCC(=O)OC(CCCCCCCC)CCCCCCCC)CCN(CCO)CCO [YK-213, bis(heptadecan-9-yl)-6,6-((2-(bis(2-hydroxyethyl)amino)ethyl)azadialkyl)dihexanoate] | 34.70 µg/mL | 82.0% | 42.34 µg/mL | 17.6% | 207 nm | 41.44% | 1364505 RLU | 20.87 | 21.95 | 15.43 | 0.82 | – | – | – | – |
| CCCCCCCCC(CCCCCCCC)OC(=O)CCCCCN(CCCCCC(=O)OC(CCCCCCCC)CCCCCCCC)CCN(C)CCNC [YK-224] | 38.81 µg/mL | 98.7% | 39.31 µg/mL | 30.3% | 185 nm | 23.47% | 88020 RLU | 323.59 | 340.35 | 239.25 | 0.05 | – | – | – | – |
| CCCCCCC(CCCCCC)CCOC(=O)CCCCCN(CCCCCC(=O)OCCC(CCCCCC)CCCCCC)CCN(C)CCNC [YK-225] | 38.74 µg/mL | 98.0% | 39.53 µg/mL | 19.3% | 222 nm | 43.41% | 26145 RLU | 1089.41 | 1145.82 | 805.46 | 0.02 | – | – | – | – |
| CCCCCCCCCCOC(=O)CCCN(CCCCCC(=O)OCC(CCCCCCCC)CCCCCCCC)C(=O)SCCCN(C)C [YK-219] | 30.31 µg/mL | 64.2% | 47.23 µg/mL | 22.4% | 217 nm | 58.61% | 1505963 RLU | 18.91 | 19.89 | 13.98 | 0.90 | – | – | – | – |
| CCCCCCCCCCOC(=O)CCCN(CCCCCC(=O)OCC(CCCCCCCC)CCCCCCCC)CCN(C)CCNC [YK-221] | 31.46 µg/mL | 95.4% | 32.98 µg/mL | 21.9% | 237 nm | 20.95% | 27960 RLU | 1018.69 | 1071.44 | 753.17 | 0.02 | – | – | – | – |
| CCCCCCC(CCCCCC)CCOC(=O)CCCCCN(CCCCCC(=O)OCCC(CCCCCC)CCCCCC)CCN(C)CCO [YK-211, bis(3-hexylnonyl)-6,6-((2-(2-hydroxyethyl(methyl)amino)ethyl)azadialkyl)dihexanoate] | 42.91 µg/mL | 97.7% | 43.92 µg/mL | 20.7% | 222 nm | 52.30% | 1370100 RLU | 20.79 | 21.87 | 15.37 | 0.82 | – | – | – | – |
| CCCCCCCCCCOC(=O)CCCN(CCCCCC(=O)OCCC(CCCCCC)CCCCCC)C(=O)SCCCN(C)C [YK-220] | 25.27 µg/mL | 57.5% | 43.92 µg/mL | 26.6% | 221 nm | 58.99% | 216398 RLU | 131.62 | 138.44 | 97.32 | 0.13 | – | – | – | – |
| CCCCCCCCCCCOC(=O)CCCCCN(CCCCCCCC(=O)OC(CCCCCCC)CCCCCCC)CCN(CC)CCO [YK-205] | 30.02 µg/mL | 68.4% | 43.92 µg/mL | 17.7% | 219 nm | 58.92% | 1029168 RLU | 27.68 | 29.11 | 20.46 | 0.62 | – | – | – | – |
| CCCCCCCCCCCOC(=O)CCCCCN(CCCCC(=O)OCC(CCCCCCCC)CCCCCCCC)CCNCC [YK-226] | – | – | – | – | – | 27.90% | 57660 RLU | 493.98 | 519.55 | 365.22 | 0.03 | – | – | – | – |
| CCCCCCCCC(CCCCCCCC)OC(=O)CCCCCCCN(CCO)CCCCCCCC(=O)OCCC(CCCCCC)CCCCCC [Compound 21, 9-heptadecyl-8-(8-((3-hexylnonyl)oxy)-8-oxooctyl)-((2-hydroxyethyl)amino)octanoate, reference compound] | – | – | – | – | – | 69.02% | 1421028 RLU | 20.04 | 21.08 | – | 0.85 | 600390 | 108000 | 30025 | 6102 |
